ChEMBL document CHEMBL5465560, “Selectivity Literature for EUbOPEN Chemogenomic Library” (2024)

Assays:
[1] = target: T1, SNF-related serine/threonine-protein kinase (Homo sapiens) (UniProt Q9NRH2); assay: Selectivity interaction (Ambit KINOMEscan and KiNATiv profiling in Jurkat cells) EUB0000090b SNRK; assay type: cell-based; settings: at 1 µM
T1 sequence (whole entry): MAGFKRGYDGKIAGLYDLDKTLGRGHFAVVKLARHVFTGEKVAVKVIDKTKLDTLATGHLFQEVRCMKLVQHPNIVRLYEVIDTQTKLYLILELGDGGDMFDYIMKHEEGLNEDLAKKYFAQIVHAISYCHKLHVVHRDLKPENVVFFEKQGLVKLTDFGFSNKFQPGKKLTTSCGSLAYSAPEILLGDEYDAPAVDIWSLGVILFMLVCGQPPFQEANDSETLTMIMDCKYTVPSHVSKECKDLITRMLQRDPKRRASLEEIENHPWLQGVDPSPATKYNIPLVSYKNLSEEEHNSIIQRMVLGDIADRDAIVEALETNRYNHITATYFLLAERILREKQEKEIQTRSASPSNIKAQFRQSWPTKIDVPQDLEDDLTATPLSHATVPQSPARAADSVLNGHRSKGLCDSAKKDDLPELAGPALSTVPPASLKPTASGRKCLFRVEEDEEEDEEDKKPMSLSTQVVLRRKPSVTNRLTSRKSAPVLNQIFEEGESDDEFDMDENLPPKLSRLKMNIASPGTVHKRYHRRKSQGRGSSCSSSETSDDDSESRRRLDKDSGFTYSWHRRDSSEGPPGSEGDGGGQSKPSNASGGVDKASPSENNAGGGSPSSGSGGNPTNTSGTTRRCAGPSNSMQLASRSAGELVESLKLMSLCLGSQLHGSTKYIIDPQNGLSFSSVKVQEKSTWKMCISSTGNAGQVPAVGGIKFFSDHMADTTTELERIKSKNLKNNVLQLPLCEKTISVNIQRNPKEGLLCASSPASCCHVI

[2] = target: T2, Serine/threonine-protein kinase TBK1 (Homo sapiens) (UniProt Q9UHD2); assay: Selectivity interaction (KinomeScan (DiscoverX)) EUB0000607a TBK1; settings: at 10 µM
T2 sequence (whole entry): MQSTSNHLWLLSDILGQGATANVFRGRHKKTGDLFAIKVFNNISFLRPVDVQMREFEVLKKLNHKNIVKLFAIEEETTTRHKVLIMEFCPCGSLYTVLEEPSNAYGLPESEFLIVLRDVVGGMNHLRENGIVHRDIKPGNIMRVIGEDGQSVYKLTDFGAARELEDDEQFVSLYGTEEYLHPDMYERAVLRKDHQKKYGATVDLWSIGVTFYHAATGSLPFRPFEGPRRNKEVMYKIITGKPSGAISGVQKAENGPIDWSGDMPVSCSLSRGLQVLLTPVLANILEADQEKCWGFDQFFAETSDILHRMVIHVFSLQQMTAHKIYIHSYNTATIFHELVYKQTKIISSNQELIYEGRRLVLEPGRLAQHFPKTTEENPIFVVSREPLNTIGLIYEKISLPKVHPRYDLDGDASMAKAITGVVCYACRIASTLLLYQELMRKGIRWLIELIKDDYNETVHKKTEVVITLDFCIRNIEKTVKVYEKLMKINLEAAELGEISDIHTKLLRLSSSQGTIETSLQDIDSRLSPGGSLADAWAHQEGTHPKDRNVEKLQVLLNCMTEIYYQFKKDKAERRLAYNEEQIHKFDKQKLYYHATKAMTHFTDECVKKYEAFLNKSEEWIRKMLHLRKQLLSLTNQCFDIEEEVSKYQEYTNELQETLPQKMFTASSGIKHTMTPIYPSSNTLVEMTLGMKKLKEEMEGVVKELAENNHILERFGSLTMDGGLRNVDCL

[3] = target: Dual specificity protein kinase CLK4 (Homo sapiens, UniProt Q9HAZ1); assay: Selectivity interaction (KinomeScan (DiscoverX)) EUB0000607a CLK4; settings: at 10 µM
[4] = target: Mitogen-activated protein kinase 11 (Homo sapiens) (UniProt Q15759); assay: Selectivity interaction (KinomeScan (DiscoverX)) EUB0000045b MAPK11
[5] = target: T3, Serine/threonine-protein kinase D2 (Homo sapiens) (UniProt Q9BZL6); assay: Selectivity interaction (Kinase panel (Invitrogen)) EUB0000639a PRKD2; settings: at 200 nM
T3 sequence (whole entry): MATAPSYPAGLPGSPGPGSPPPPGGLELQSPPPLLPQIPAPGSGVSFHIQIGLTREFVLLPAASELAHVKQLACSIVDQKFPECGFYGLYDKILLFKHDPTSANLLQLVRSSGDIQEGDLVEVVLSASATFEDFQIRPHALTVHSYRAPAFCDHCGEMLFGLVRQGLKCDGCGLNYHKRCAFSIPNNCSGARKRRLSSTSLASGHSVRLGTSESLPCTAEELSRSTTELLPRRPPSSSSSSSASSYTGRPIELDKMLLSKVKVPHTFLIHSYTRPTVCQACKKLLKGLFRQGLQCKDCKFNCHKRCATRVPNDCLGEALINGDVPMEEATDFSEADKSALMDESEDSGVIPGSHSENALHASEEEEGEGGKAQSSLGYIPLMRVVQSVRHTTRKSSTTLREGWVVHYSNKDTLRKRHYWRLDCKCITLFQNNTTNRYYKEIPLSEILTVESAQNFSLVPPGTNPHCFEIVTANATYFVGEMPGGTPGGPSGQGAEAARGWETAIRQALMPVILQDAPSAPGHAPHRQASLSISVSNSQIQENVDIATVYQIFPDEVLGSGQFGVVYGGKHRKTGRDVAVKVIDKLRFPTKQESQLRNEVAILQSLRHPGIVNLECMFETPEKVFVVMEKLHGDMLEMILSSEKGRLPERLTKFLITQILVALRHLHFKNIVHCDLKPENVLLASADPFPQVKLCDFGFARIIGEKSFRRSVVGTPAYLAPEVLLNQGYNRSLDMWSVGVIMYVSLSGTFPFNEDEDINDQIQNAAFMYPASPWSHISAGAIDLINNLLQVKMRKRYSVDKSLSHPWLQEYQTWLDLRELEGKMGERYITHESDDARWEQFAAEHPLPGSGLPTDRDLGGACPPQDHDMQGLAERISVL

[6] = target: Ribosomal protein S6 kinase alpha-3 (Homo sapiens, UniProt P51812); assay: Selectivity interaction (KinomeScan (DiscoverX)) EUB0000229b RPS6KA3; settings: at 10 µM
[7] = target: MAP/microtubule affinity-regulating kinase 3 (Homo sapiens) (UniProt P27448); assay: Selectivity interaction (ProQinase) EUB0000171b MARK3
[8] = target: Vascular endothelial growth factor receptor 1 (Homo sapiens) (UniProt P17948); assay: Selectivity interaction (Kinase panel (Z-LYTE Assay)) EUB0001632a FLT1; settings: at 10 µM
[9] = target: Proto-oncogene tyrosine-protein kinase receptor Ret (Homo sapiens, UniProt P07949); assay: Selectivity interaction (Kinase screening (Nanosyn)) EUB0000604a RET
Chain of Proto-oncogene tyrosine-protein kinase receptor Ret (P07949 whole entry): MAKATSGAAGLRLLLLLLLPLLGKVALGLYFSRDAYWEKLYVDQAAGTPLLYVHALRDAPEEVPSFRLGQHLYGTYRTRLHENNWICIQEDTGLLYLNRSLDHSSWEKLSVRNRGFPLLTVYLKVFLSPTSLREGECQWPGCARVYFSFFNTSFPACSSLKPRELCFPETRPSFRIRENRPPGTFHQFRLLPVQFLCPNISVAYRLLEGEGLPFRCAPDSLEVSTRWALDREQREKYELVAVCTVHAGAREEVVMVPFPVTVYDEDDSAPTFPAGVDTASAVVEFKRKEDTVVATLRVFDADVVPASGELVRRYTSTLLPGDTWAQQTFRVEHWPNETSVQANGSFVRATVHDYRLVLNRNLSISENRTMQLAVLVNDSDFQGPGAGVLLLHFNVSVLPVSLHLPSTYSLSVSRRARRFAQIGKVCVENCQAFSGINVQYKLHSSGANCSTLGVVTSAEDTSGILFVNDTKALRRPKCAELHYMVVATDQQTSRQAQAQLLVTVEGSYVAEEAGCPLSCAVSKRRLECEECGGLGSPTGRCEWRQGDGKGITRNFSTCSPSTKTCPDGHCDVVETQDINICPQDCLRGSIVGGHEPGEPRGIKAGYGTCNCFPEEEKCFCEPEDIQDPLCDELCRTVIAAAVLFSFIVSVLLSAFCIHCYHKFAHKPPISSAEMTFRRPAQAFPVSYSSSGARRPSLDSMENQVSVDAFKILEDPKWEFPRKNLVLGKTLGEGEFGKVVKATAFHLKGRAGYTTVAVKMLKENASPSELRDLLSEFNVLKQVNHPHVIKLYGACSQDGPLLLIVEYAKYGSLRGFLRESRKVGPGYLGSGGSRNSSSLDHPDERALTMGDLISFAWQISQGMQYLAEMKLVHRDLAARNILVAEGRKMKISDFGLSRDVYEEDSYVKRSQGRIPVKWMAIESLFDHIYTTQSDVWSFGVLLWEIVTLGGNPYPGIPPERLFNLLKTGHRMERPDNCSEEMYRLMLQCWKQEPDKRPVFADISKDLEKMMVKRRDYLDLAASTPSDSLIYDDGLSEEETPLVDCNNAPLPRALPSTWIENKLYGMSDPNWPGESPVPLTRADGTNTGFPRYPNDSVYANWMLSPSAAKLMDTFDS

Chain of MAP/microtubule affinity-regulating kinase 3 (Homo sapiens) (P27448 whole entry, looked up): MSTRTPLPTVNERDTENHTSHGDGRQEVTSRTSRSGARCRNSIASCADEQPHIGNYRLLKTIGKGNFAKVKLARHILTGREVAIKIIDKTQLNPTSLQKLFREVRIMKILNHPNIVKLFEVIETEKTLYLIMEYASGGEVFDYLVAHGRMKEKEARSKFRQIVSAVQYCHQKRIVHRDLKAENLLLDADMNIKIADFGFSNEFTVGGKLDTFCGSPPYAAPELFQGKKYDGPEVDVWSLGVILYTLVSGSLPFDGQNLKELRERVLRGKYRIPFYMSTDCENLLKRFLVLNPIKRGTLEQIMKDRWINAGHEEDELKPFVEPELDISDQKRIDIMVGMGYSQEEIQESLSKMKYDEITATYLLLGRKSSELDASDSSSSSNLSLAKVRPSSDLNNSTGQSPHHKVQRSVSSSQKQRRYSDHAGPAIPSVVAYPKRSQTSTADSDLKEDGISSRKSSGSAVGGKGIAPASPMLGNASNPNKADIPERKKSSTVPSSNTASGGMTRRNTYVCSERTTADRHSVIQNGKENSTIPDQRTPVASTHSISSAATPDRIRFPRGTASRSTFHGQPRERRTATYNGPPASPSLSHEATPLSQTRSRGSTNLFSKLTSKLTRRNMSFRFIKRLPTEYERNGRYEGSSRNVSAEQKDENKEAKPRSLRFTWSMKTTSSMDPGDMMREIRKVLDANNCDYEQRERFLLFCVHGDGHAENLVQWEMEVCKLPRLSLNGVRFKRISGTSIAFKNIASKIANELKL
Chain of Mitogen-activated protein kinase 11 (Homo sapiens) (Q15759 whole entry): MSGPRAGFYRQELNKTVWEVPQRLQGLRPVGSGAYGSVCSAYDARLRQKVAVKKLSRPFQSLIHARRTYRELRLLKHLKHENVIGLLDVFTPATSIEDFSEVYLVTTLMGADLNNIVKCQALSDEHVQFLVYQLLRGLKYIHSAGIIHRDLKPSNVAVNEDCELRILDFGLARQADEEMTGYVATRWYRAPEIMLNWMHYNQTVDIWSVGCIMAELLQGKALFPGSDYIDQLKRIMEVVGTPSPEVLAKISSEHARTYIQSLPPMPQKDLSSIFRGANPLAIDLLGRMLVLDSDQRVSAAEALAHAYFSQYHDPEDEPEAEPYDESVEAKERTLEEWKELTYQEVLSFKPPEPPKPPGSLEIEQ
Chain of Vascular endothelial growth factor receptor 1 (Homo sapiens) (P17948 whole entry): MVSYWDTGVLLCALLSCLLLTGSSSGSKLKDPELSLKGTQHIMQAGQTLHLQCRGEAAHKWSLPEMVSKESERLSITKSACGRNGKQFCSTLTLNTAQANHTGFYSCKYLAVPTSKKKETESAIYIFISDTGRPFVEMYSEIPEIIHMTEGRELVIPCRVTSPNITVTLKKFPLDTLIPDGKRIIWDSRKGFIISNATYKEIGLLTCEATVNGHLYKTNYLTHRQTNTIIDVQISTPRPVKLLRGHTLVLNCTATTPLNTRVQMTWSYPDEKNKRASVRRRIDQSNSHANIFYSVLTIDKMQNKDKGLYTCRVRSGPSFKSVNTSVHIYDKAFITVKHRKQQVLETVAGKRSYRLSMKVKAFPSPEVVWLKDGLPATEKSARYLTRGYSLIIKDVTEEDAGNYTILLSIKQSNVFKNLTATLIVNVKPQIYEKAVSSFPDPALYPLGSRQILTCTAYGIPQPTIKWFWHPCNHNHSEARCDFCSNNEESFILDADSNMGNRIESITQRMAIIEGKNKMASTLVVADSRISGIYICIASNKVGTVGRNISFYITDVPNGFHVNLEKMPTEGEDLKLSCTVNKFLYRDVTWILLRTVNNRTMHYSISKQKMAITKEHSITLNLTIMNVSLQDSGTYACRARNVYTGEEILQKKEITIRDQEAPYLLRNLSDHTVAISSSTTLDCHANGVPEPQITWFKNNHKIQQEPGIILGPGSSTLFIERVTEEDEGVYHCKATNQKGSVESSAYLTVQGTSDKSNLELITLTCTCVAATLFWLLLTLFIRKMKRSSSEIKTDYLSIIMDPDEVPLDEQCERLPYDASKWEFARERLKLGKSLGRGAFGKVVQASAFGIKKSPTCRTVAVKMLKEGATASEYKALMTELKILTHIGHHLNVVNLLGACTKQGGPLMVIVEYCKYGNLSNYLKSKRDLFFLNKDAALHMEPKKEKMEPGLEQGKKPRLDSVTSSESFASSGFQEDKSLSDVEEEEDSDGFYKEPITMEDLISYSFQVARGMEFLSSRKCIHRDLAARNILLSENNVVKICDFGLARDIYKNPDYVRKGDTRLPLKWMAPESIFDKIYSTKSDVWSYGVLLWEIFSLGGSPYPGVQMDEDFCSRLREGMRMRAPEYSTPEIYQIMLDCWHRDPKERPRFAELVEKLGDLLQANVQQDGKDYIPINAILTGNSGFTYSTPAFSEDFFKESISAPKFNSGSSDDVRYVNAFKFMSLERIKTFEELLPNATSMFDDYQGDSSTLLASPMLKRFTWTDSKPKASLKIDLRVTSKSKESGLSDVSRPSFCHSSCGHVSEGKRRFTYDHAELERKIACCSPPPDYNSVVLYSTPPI
Chain of Dual specificity protein kinase CLK4 (Q9HAZ1 whole entry, looked up): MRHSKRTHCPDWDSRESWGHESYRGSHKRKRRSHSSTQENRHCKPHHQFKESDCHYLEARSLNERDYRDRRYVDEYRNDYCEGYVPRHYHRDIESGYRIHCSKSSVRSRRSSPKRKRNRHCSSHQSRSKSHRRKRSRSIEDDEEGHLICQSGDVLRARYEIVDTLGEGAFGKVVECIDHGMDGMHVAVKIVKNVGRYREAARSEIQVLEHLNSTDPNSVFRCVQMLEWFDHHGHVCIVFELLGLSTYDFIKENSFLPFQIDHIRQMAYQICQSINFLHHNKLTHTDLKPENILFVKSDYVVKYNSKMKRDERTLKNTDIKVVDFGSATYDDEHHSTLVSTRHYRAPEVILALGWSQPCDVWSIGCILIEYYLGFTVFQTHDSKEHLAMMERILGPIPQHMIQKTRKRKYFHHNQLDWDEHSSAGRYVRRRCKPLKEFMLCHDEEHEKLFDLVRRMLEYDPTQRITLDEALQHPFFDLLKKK
Chain of Ribosomal protein S6 kinase alpha-3 (P51812 whole entry): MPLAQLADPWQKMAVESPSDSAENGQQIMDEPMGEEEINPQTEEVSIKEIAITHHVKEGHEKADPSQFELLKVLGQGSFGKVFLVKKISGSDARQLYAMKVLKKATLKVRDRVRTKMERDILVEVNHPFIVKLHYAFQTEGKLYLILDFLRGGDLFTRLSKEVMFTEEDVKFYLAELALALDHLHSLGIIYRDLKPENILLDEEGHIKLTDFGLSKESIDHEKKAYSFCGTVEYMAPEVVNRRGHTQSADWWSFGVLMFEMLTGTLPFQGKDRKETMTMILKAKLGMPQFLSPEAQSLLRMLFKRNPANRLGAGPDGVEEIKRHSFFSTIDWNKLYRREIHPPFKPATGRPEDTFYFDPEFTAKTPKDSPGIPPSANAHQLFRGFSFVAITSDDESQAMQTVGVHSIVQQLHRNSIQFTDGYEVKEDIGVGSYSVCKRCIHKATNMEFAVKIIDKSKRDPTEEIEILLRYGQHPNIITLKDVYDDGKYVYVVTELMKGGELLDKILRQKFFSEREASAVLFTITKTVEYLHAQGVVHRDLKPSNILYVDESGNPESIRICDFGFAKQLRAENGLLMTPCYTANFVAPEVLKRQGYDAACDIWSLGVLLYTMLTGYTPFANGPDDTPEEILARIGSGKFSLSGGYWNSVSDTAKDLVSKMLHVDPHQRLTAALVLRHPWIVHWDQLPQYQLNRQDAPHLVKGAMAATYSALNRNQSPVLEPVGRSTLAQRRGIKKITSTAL

## CN(C)C/C=C/C(=O)Nc1ccc(C(=O)N2CCCC(Nc3ncc(Cl)c(-c4c[nH]c5ccccc45)n3)C2)cc1 (stereo unspecified)
[1]
  % of control: 93%

## CNC(=O)Nc1ccc(-c2nc(N3CC4CCC(C3)O4)c3cnn(C4CCC5(CC4)OCCO5)c3n2)cc1
[2]
  % of control: 82%
[3]
  % of control: 88%

## C=CC(=O)Nc1cc(-n2c(=O)ccc3cnc4ccc(-c5ccc(NS(C)(=O)=O)cc5)cc4c32)ccc1C
[4]; at 1 µM
  % of control: 90%
[4]; at 10 µM
  % of control: 95%

## CC[C@@H]1[C@H](F)C(=O)N[C@@H]1COc1nccc2cc(C(N)=O)c(OC)cc12 [ZIMLOVISERTIB]
[5]
  % of inhibition: 5.6%

## COc1cc(N(C)c2ccnc3ccc(C(F)(F)F)cc23)cc(OC)c1OC
[6]
  % binding: 71%

## C=CC(=O)Nc1cccc(C(=O)Nc2ccc(Nc3cc(-c4[nH]c(SC)nc4C)ccn3)cc2)c1
[7]; at 1 µM
  % of control: 82%
[7]; at 5 µM
  % of control: 92%

## Cn1cc(-n2cnc3c(NCc4nc5cc(Cl)c(Cl)cc5[nH]4)nc(N4CCOCC4)nc32)cn1
[8]
  % of control: 1.04%

## Cc1cnc(Nc2ccc(F)cc2Cl)nc1-c1c[nH]c(C(=O)N[C@H](CO)c2cccc(Cl)c2)c1
[9]
  % of inhibition: 3%
